Results reported in paper PMC3970110 (Bioorganic & medicinal chemistry letters, 2013).

Target: T1, human NAD+-dependent 15-hydroxyprostaglandin dehydrogenase (HPGD, 15-PGDH) (Homo sapiens, UniProt P15428)
T1 sequence (P15428 1-266): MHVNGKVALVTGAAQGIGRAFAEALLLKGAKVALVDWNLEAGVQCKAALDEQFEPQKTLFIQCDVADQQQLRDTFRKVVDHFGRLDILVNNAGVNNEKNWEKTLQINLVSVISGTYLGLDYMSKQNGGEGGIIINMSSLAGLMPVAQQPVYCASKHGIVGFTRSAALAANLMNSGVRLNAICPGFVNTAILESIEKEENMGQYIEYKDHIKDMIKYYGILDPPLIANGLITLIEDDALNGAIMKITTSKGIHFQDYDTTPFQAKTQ
Test: HPGD HTS enzymatic assay
Format: biochemical

Compound: Cc1cccc(-n2cnc3cc(C(=O)N4CCCC4)ccc32)c1 [Compound 11i]
- decrease in HPGD activity relative to ML148: 20 fold
